Results as given in patent publication US5075338A (priority 1986, dated 1991).

Tests used:
nictitating membrane = assay: noradrenaline releasing effect in cats (in vivo), contraction of the nictitating membrane; settings: anesthetized cat, PEA i.p.
[1] = tested on: neuronal uptake of indirectly acting endogenic sympathomimetic amines; settings: background; cited from earlier work
noradrenaline release = settings: background; cited from earlier work
[2] = psychostimulant effect in rats: shuttle-box test; type: in vivo, rat
[3] = effect exerted on food intake, in rats; type: in vivo, rat
[4] = psychostimulant effect in rats: modified jumping test; type: in vivo, rat

Compound	contraction of the nictitating membrane (nictitating membrane)	inhibition of neuronal uptake of indirectly acting endogenic sympathomimetic amines [1]	noradrenaline releasing effect (noradrenaline release)	intersignal reaction ([2]; 1 mg/kg s.c. daily)	acquisition of a conditioned reaction and its retention ([2]; 1 mg/kg s.c. daily, five days of observation)	general motility ([2]; 5-10 mg/kg)	food intake ([3]; rats fasted for 96 hours, 2-5 mg/kg, for 3-4 hours)	anorectic effect ([3]; well-fed satiated rats, 1 mg/kg)	learning and retention ([4]; larger doses, above 3 mg/kg)	learning and retention ([4]; small doses, up to 1-2 mg/kg)
CN[C@@H](C)Cc1ccccc1 [methamphetamine]	contraction of long duration	inhibits the neuronal uptake of indirectly acting endogenic sympathomimetic amines to a significant extent	strong and long lasting							
CC(N)Cc1ccccc1 (stereo not drawn) [amphetamine, reference compound]	contraction of long duration		strong and long lasting	disproportionately high intersignal reaction	significantly increases the acquizition of a conditioned reaction and its retention	extremely high general motility increasing effect	completely inhibited	exhibits an anorectic effect	deteriorate	improve
